Assay [1] relates to rat (Male Spraque-Dawley (Harlan)). As to the kind of experiment: Passive avoidance in rats, in vivo test for learning and memory. As to conditions: retention test 24 hours after electric shock; MK-801 0.1 mg/kg pretreatment compared to the vehicle (p<0.001). As for the experimental part:
The test was performed as previously described (Zhang, H.-T., Crissman, A. M., Dorairaj, N. R., Chandler, L. J., and O'Donnell, J. M., Neuropsychopharmacology, 2000, 23, 198-204.). The apparatus (Model E10-16SC, Coulbourn Instruments, Allentown, Pa.) consisted of a two-compartment chamber with an illuminated compartment connected to a darkened compartment by a guillotine door. The floor of the darkened compartment consisted of stainless steel rods through which an electric foot-shock could be delivered from a constant current source. All experimental groups were first habituated to the apparatus the day before the start of the experiment. During the training, the rat (Male Spraque-Dawley (Harlan) weighing 250 to 350 g) was placed in the illuminated compartment facing away from the closed guillotine door for 1 minute before the door was raised. The latency for entering the darkened compartment was recorded. After the rat entered the darkened compartment, the door was closed and a 0.5 mA electric shock was administered for 3 seconds. […] The latency for entering the darkened compartment was recorded for up to 180 seconds, at which time the trial was terminated.
(§1) All data were analyzed by analyses of variance (ANOVA); individual comparisons were made using Kewman-Keuls tests. […]

In assay [2] the test system is rats (male Spraque-Dawley (Harlan)). The assay can be described thus: Radial arm maze task in rats, in vivo test for learning and memory. Further details: species or system rat. To be noted: MK-801 0.1 mg/kg, i.p., compared to control (p<0.01). Here is the method: The test was performed as previously described (Zhang, H.-T., Crissman, A. M., Dorairaj, N. R., Chandler, L. J., and O'Donnell, J. M., Neuropsychopharmacology, 2000, 23, 198-204.). Five days after initial housing, rats (male Spraque-Dawley (Harlan) weighing 250 to 350 g) were placed in the eight-arm radial maze (each arm was 60×10×12 cm high; the maze was elevated 70 cm above the floor) for acclimation for two days. Rats were then placed individually in the center of the maze for 5 minutes with food pellets placed close to the food wells, and then, the next day, in the wells at the end of the arms; 2 sessions a day were conducted. Next, four randomly selected arms were then baited with one pellet of food each. The rat was restricted to the center platform (26 cm in diameter) for 15 seconds and then allowed to move freely throughout the maze until it collected all pellets of food or 10 minutes passed, whichever came first. Four parameters were recorded: 1) working memory errors, i.e., entries into baited arms that had already been visited during the same trial; 2) reference memory errors, i.e., entries into unbaited arms; 3) total arm entries; and 4) the test duration (seconds), i.e., the time spent in the collection of all the pellets in the maze. […]
as §1

The structures appear in SMILES notation.

Take `C[C@]12N[C@H](Cc3ccccc31)c1ccccc12` [MK-801]: the “latency for entering the darkened compartment” value in assay [1] is “markedly reduced”. Besides, in assay [2], the “frequency of reference memory errors” value is “increased” and the “frequency of working memory errors” value is reported as “increased”.

The values are drawn from patent US7335654B2, “Phosphodiesterase 4 inhibitors” (Memory Pharmaceuticals Corporation, priority 2002, dated 2008).
